Experimental data as given in US20180118721A1, “PYRIMIDINE DERIVATIVES” (Merck Patent GmbH, priority 2015, published 2018).

Experiments:
[1] = biological target: T1, purified human recombinant MTH1 (human MTH1, residues 42-197) (Homo sapiens, UniProt P36639); assay: MTH1 enzymatic assay (luminescence-based, PPiLight); format: biochemical; conditions: 6 μM 8-oxo-dGTP, Table 1, grouped
T1 construct: human MTH1, residues 42-197, Uniprot-ID: P36639, expressed in E. coli; made in house; host or cells: E. coli
Description: The IC50 value was determined by a MTH1 enzymatic assay. The assay comprises the principal steps of incubating a mixture of MTH1, the compound in question at different concentrations and 8-oxo-2′-deoxyguanosine-5′-triphosphate (8-oxo-dGTP) in assay buffer. Nucleotide triphosphate hydrolysis by MTH1, i.e. decomposition of 8-oxo-2′-deoxyguanosine-5′-triphosphate, produces 8-oxo-2′-deoxyguanosine-5′-monophosphate (8-oxo-dGMP) and pyrophosphate (PPi). The amount of generated pyrophosphate (PPi) is then measured by a bioluminescent reaction. In detail: The MTH1 (human mutT homologue 1) enzymatic assay is performed as a luminescence-based 384-well assay. […] The assay buffer contains 100 mM Tris-acetate pH 7.5, 40 mM NaCl, 10 mM Mg(OAc)2, 0.005% Tween 20 and 2 mM dithiothreitol (DTT). […] Then, in a second step, the substrate 8-oxo-dGTP is added and the reaction mixture is incubated for 30 minutes at 22° C. The pharmacologically relevant assay volume is 5 PI. The final concentrations in the assay during incubation of the reaction mixture are 0.1-0.2 nM, typically 0.1 nM, MTH1 and 6 μM 8-oxo-dGTP. After incubation of the reaction mixture, the generation of pyrophosphate (PPi) as a result of nucleotide triphosphate (8-oxo-dGTP) hydrolysis by MTH1 is detected using the PPiLight inorganic pyrophosphate assay kit (Lonza) (third step). 2 to 5 μl, such as 3 to 5 μl, typically 3 or 4 μl, for instance 4 μl, of a 1:1 mixture of PPiLight converting reagent (AMP) and PPiLight detection reagent are added to the reaction mixture. In the presence of pyrophosphate, the detection reagent catalyzes the conversion of AMP to ATP. Luciferase then produces light from the newly formed ATP and luciferin. The amount of light produced is directly proportional to the amount of PPi in the sample. Following signal development for 1 h the plates are analysed in an EnVision (PerkinElmer) microplate reader using the ultra sensitive luminescence option. Data are processed employing the Genedata Screener software. In particular, IC50 values are determined in the usual manner (using the Hill Equation) by fitting a dose-response curve to the data points using nonlinear regression analysis.
Hill Equation: Y=S0+(Sinf−S0)/(1+(10^logIC50/10^c)^n); Y: luminescence signal (response), S0: activity level at zero concentration of test compound, Sinf=activity level at infinite concentration, Hill coefficient n=measure of the slope at IC50, c=concentration in logarithmic units corresponding to the values on the x-axis of the dose response curve plot

[2] = biological target: T2, humanMTH1 (aminoacids 42 to 197) (Homo sapiens, UniProt P36639); assay: Binding affinities and kinetics on MTH1 surfaces by surface plasmon resonance (SPR); conditions: for Kd: SPR, Biacore4000, 25° C., Table 1, grouped, read-out: KD IC50; for residence time: on MTH1, calculated on the basis of the KD values, read-out: Residence time
T2 construct: humanMTH1 (aminoacids 42 to 197); His tag at the N-terminus; purchased Abnova ab99390; host or cells: E. coli
Description: The SPR experiments were performed using a Biacore4000 instrument. […] HumanMTH1 was immobilized on Biacore CM5 chips at 25° C. and a flow rate of 10 μL/min using amine coupling at pH 5.5 and in presence of 1 μM MSC2567771B-1 according to Biacore's standard protocol. MTH1 was applied at a concentration of 10 μg/mL and depending on the duration of the injection time immobilization levels between 500 and 2,000 RU were obtained. Sample compounds were applied in form of titration series with a doubling of concentration at each subsequent injection. In general, 10 concentrations were injected covering a dilution range of 500 fold. Before and after each of these titration series the binding capability of the surface was controlled by the injection of the positive control S-Crizotinib at a fixed concentration of 2 μM. Kinetic titration experiments were performed at 25° C. with a flow rate of 30 μL/min, a sample contact time of 90 sec and a dissociation time of 420 sec in running buffer (20 mM Tris-HCl (Tris(hydroxymethyl)-aminomethane HCl) pH 7.40, 150 mM NaCl, 5 mM MgCl2, 1 mM DTT (dithiothreitol), 0.1 mM EGTA (ethylene glycol tetraacetic acid), 0.05% Tween 20) containing 2% DMSO (dimethyl sulfoxide). Buffer injections identical to the sample injections were executed at the beginning of the successive series for the purpose of double referencing. Solvent correction cycles (eight correction points, 1.4%-2.8% DMSO) were run at the same intervals. For surface conditioning ten start-up cycles (buffer injections) were run. Data points were collected at a sample rate of 10 Hz.
Data sets were processed and analyzed using the software Biacore4000 Evaluation, version 1.0. Solvent corrected and double-referenced association and dissociation phase data were fitted to a simple 1:1 interaction model with mass transport limitations.
Measured values are indicated as KD IC50 in the Table below.

| SMILES | IC50 [1] [nM] | Kd [2] [nM] | residence time [2] [min] |
| --- | --- | --- | --- |
| C[C@H]1C[C@@H](O)CN1c1cc(NC2CC2)nc(N)n1 [Example 46, (3R,5S)-1-(2-Amino-6-cyclopropylamino-pyrimidin-4-yl)-5-methyl-pyrrolidin-3-ol] | < 1 | < 1 |  |
| CNc1cc(N2CCCCC2Cc2ccccc2OC)nc(N)n1 (single isomer, unassigned) [Example 107] | 1 to 100 | 1 to 100 |  |
| C[C@@H]1[C@H](c2ccccc2)CCN1c1cc(NC2CC2)nc(N)n1 (stereo in doubt) [Example 56, N4-Cyclopropyl-6-((2R,3S)-2-methyl-3-phenyl-pyrrolidin-1-yl)-pyrimidine-2,4-diamine] | 1 to 100 | 1 to 100 |  |
| CNc1cc(N2CCC[C@H]2Cc2ccccc2OC)nc(N)n1 [Example 92, 6-[(S)-2-(2-Methoxy-benzyl)-pyrrolidin-1-yl]-N4-methyl-pyrimidine-2,4-diamine] | < 1 |  | ≥ 10 |
| CNc1cc(N2CCCCC2Cc2ccccc2Cl)nc(N)n1 (stereo not shown) [Example 105, 6-[2-(2-Chloro-benzyl)-piperidin-1-yl]-N4-methyl-pyrimidine-2,4-diamine] | < 1 | 1 to 100 | ≥ 10 |
| CNc1cc(N2CCCCC2Cc2ccccc2OC)nc(N)n1 (stereo not shown) [Example 100, 6-[2-(2-Methoxy-benzyl)-piperidin-1-yl]-N4-methyl-pyrimidine-2,4-diamine] | < 1 | 1 to 100 | ≥ 10 |
| Nc1nc(NC2CC2)cc(N2CCC[C@H]2Cc2ccccc2Cl)n1 [Example 48, 6-[(S)-2-(2-Chloro-benzyl)-pyrrolidin-1-yl]-N4-cyclopropyl-pyrimidine-2,4-diamine] | 1 to 100 | 1 to 100 |  |
| C[C@H]1C(c2ccccc2)CCN1c1cc(NC2CC2)nc(N)n1 (stereo in doubt) [Example 54, N4-Cyclopropyl-6-((2S,3R)-2-methyl-3-phenyl-pyrrolidin-1-yl)-pyrimidine-2,4-diamine] | 1 to 100 | 1 to 100 |  |
| CNc1cc(N2CCC[C@](O)(c3ccccc3)C2)nc(N)n1 (single isomer, unassigned) [Example 91] | 1 to 100 | 1 to 100 |  |
| CNc1cc(N2CC(Cc3ccccc3)CC2=O)nc(N)n1 (stereo not shown) [Example 115, 1-(2-Amino-6-methylamino-pyrimidin-4-yl)-4-benzyl-pyrrolidin-2-one] | 1 to 100 | 1 to 100 |  |
| C[C@]1(O)CCN(c2cc(NC3CC3)nc(N)n2)C1 [Example 53, (S)-1-(2-Amino-6-cyclopropylamino-pyrimidin-4-yl)-3-methyl-pyrrolidin-3-ol] | 1 to 100 | 1 to 100 |  |
| NC(=O)[C@H]1CCN(c2nc(N)nc3c2CCCN3)C1 [Example 78, (S)-1-(2-Amino-5,6,7,8-tetrahydro-pyrido[2,3-d]pyrimidin-4-yl)-pyrrolidine-3-carboxylic acid amide-formiate] | < 1 | 1 to 100 |  |
| CCCCOC(=O)CC1CCCN1c1cc(NC2CC2)nc(N)n1 (stereo not shown) [Example 87, [1-(2-Amino-6-cyclopropylamino-pyrimidin-4-yl)-pyrrolidin-2-yl]-acetic acid butyl ester] | 1 to 100 | 1 to 100 |  |
| Nc1nc(NC2CC2)cc(N2CCCC2CC(=O)O)n1 (stereo not shown) [Example 97, [1-(2-Amino-6-cyclopropylamino-pyrimidin-4-yl)-pyrrolidin-2-yl]acetic acid] | 1 to 100 | > 100 |  |
| Nc1nc(NC2CC2)cc(N2CC[C@H](O)C2)n1 [Example 44, (S)-1-(2-Amino-6-cyclopropylamino-pyrimidin-4-yl)-pyrrolidin-3-ol] | 1 to 100 | 1 to 100 |  |
| CNc1cc(N2C(=O)CCC2Cc2ccccc2)nc(N)n1 (stereo not shown) [Example 114, 1-(2-Amino-6-methylamino-pyrimidin-4-yl)-5-benzyl-pyrrolidin-2-one] | 1 to 100 | 1 to 100 |  |
| Nc1nc(NC2CC2)cc(N2C[C@H](O)CC2=O)n1 [Example 86, (R)-1-(2-Amino-6-cyclopropylamino-pyrimidin-4-yl)-4-hydroxy-pyrrolidin-2-one] | > 100 | > 100 |  |
| C=CC(=O)Nc1ccc(CCNC(=O)C2CN(c3cc(NC)nc(N)n3)C2)cc1 [Example 118, 1-(2-Amino-6-methylamino-pyrimidin-4-yl)-azetidine-3-carboxylic acid [2-(4-acryloylamino-phenyl)-ethyl]-amide] | 1 to 100 | 1 to 100 |  |
| CC1CC2CCCCC2N1c1cc(NC2CC2)nc(N)n1 (stereo not shown) [Example 31, N4-Cyclopropyl-6-(2-methyl-octahydro-indol-1-yl)-pyrimidine-2,4-diamine] | 1 to 100 | 1 to 100 |  |
| C[C@@H]1C[C@H](O)CN1c1cc(NC2CC2)nc(N)n1 [Example 45, (3S,5R)-1-(2-Amino-6-cyclopropylamino-pyrimidin-4-yl)-5-methyl-pyrrolidin-3-ol] | 1 to 100 | 1 to 100 |  |
| CNc1cc(N2CCCC2Cc2ccc(Cl)cc2)nc(N)n1 (stereo not shown) [Example 84, 6-[2-(4-Chloro-benzyl)-pyrrolidin-1-yl]-N4-methyl-pyrimidine-2,4-diamine] | < 1 | 1 to 100 |  |
| CNc1cc(N2CCCC2Cc2cccc(C)c2)nc(N)n1 (stereo not shown) [Example 112, N4-Methyl-6-[2-(3-methyl-benzyl)-pyrrolidin-1-yl]-pyrimidine-2,4-diamine] | < 1 | 1 to 100 |  |
| Nc1nc(NC2CC2)cc(N2CCC(O)(c3ccccc3)C2)n1 (stereo not shown) [Example 32, 1-(2-Amino-6-cyclopropylamino-pyrimidin-4-yl)-3-phenyl-pyrrolidin-3-ol] | 1 to 100 | 1 to 100 |  |
| C[C@@H]1C(c2ccccc2)CCN1c1cc(NC2CC2)nc(N)n1 (stereo in doubt) [Example 57, N4-Cyclopropyl-6-((2R,3R)-2-methyl-3-phenyl-pyrrolidin-1-yl)-pyrimidine-2,4-diamine] | 1 to 100 | 1 to 100 |  |
| Nc1nc(NC2CC2)cc(N2CC[C@](O)(C(F)(F)F)C2)n1 [Example 50, (R)-1-(2-Amino-6-cyclopropylamino-pyrimidin-4-yl)-3-trifluoromethyl-pyrrolidin-3-ol] | 1 to 100 | 1 to 100 |  |
| CNc1cc(N2CCCC2Cc2cccc(Cl)c2)nc(N)n1 (stereo not shown) [Example 85, 6-[2-(3-Chloro-benzyl)-pyrrolidin-1-yl]-N4-methyl-pyrimidine-2,4-diamine] | < 1 | < 1 |  |
| Nc1nc(NC2CC2)cc(N2CCCC2C(=O)NCc2ccccc2Cl)n1 (stereo not shown) [Example 88, 1-(2-Amino-6-cyclopropylamino-pyrimidin-4-yl)-pyrrolidine-2-carboxylic acid 2-chloro-benzylamide] | > 100 | > 100 |  |
| Nc1nc(NC2CC2)cc(N2CCCc3ccccc32)n1 [Example 51, N4-Cyclopropyl-6-(3,4-dihydro-2H-quinolin-1-yl)-pyrimidine-2,4-diamine] | < 1 | 1 to 100 |  |
